Where only a bound is given, the exact number is not on record here.

As a reminder, the Papp A→B is how fast a substance crosses the layer from the apical side. Higher therefore signals fast passage. What is called Emax is the size of the effect at its maximum, as opposed to the concentration needed.

The nature of data set [1]: Unidirectional Caco-2 cell permeability assay. It counts as in vitro ADME. The conditions noted are these: human, n=2, apical pH 6.5, basolateral pH 7.4, 1 hour, 37° C. Here is the method: Caco-2 cells (ECACC) were seeded onto 24-well Transwell plates at 2×10^5 cells per well and used in confluent monolayers after a 21 day culture at 37° C. under 5% CO2. Test compounds were incubated at 10 μM, 0.2% DMSO final, n=2 in assay buffer (Hanks balanced salt solution supplemented with 25 mM HEPES, adjusted to pH 6.5). Hanks balanced salt solution supplemented with 25 mM HEPES, adjusted to pH 7.4 (0.2% DMSO final) was used for the basolateral chamber (as receiver).
Incubations were performed at 37° C., with samples removed from both donor and acceptor chambers at T=0 and 1 hour and compound analysed by mass spectrometry (LC-MS/MS) including an analytical internal standard (0.5 μM carbamazepine).
Apparent permeability (Papp) values are shown in Table 4 and were determined from the relationship:
Where V is the volume of each Transwell compartment (apical 125 μL, basolateral 600 μL), and concentrations are the relative MS responses for compound (normalized to internal standard) in the donor chamber before incubation and acceptor chamber at the end of the incubation Area=area of cells exposed for drug transfer (0.33 cm^2).
Lucifer Yellow (LY) was added to the apical buffer in all wells to assess viability of the cell layer. As LY cannot freely permeate lipophilic barriers, a high degree of LY transport indicates poor integrity of the cell layer and wells with a LY Papp>10×10^−6 cm/s were rejected.
Compound recovery from the wells was determined from MS responses (normalized to internal standard) in donor and acceptor chambers at the end of incubation compared to response in the donor chamber pre-incubation.
On the technique in general: Caco-2 cells form a polarised layer with tight junctions and transporters.

Another data set concerns the target T1, human EP4 (Homo sapiens, UniProt P35408).
T1 construct: expressed in transfected cells; host or cells: HEK293 cells transduced with EP4 BacMam virus
Briefly: cAMP Gs functional assay (HTRF cAMP dynamic-2). The conditions noted are these: for Emax: HEK293, HEK293 cells transfected with EP4 Bacmam virus, positive control 10 uM PGE2; for EC50: HEK293 cells transfected with EP4 Bacmam virus, 30 mins at 37° C., −Log of the molarity (M), read-out: cAMP human EP4 pEC50 (converted). It is filed as cell-based. Here is the method: Cloning, Baculovirus generation, large scale infection of HEK293 cells and membrane preparation: Human prostaglandin E2 receptor 4 (EP4) was cloned into pBacMam expression vector (GeneScript, UK). Transposition of EP4 DNA was performed using Invitrogen's Bac-to-Bac Baculovirus Expression Systems. P0 baculovirus was generated by transfecting SF9 Cells with bacmid DNA using Cellfectin II transfection reagent (ThermoFisher Scientific, UK). Following P0 generation P1 virus was then generated ready for large scale infection and membrane preparation. HEK293 cells were grown in DMEM (ThermoFisher Scientific, UK), supplemented with 10% heat inactivated fetal bovine serum (FBS). Cells were infected at a seeding density of 3.5 million cells/mL in 500 cm^3 flasks at 5% v/v EP4 Bacman. Expression was carried out over a 36 hr period at 37° C. with 5% CO2. The cells were removed using PBS and a cell scrapper. The cell culture was centrifuged at 2500 RPM for 10 mins at 4° C. The supernatant was then poured off and the pellet stored at −80° C. The pellet was defrosted and re-suspended in 15 mL of homogenising buffer (20 mM HEPES, 10 mM EDTA, pH 7.4). Then homogenised in mechanical homogeniser (VMR) for 10 seconds. The membrane was centrifuged in centrifuge tubes at 40,000 g for 15 mins at 4° C. The supernatant was poured away and re-suspended in 15 mL of homogenising buffer. Homogenised for 20 seconds. The membrane was centrifuged at 40,000 g for 45 mins at 4° C. The membrane was re-suspended in 3 mL of storage buffer (20 mM HEPES, 0.1 mM EDTA, pH 7.4) mixing well. The resulting membranes were then stored at −80° C.
cAMP Gs Functional Assay: cAMP production following EP4 receptor activation was determined using the Homogeneous Time-Resolved Fluorescence (HTRF) cAMP dynamic-2 assay (Cisbio, France). HEK293 cells were transfected using a 0.5% EP4 Bacmam virus for 36 hours, before dissociating the cells, and freezing at −150° C.
On the day of testing, increasing concentration of test compounds, alongside positive controls (10 uM PGE2 (Tocris, Abingdon, UK)) and negative control (DMSO (Sigma-Aldrich, UK) were added to a ProxiPlate-384 Plus, White 384-shallow well Mircoplate, (PerkinElmer, USA) using the ECHO dispense.
Cells were defrosted in a water bath and resuspended in DMEM supplemented with 10% FBS before centrifuging at 1200 RPM for 5 mins to form a pellet. The pellet was resuspended in assay buffer (DMEM+0.5 mM IBMX (Tocris, Abingdon, UK)) to 0.5×10^6 cells/mL. Cell suspension, for a final assay concentration of 5000 cell/well was added using the multidrop to the pre-dispensed assay plate. The plate was then incubated at 37° C. for 30 mins, with 5% CO2. The cAMP production was determined as manufacturer's instructions, before plates were read on a PheraStar fluorescence plate reader (BMG LabTech, Germany).
The pEC50 values (−Log of the molarity (M) in mol/liter) were calculated from the mid-point of the curve using dotmatics as shown in Table 3.

T1 sequence (P35408 whole entry): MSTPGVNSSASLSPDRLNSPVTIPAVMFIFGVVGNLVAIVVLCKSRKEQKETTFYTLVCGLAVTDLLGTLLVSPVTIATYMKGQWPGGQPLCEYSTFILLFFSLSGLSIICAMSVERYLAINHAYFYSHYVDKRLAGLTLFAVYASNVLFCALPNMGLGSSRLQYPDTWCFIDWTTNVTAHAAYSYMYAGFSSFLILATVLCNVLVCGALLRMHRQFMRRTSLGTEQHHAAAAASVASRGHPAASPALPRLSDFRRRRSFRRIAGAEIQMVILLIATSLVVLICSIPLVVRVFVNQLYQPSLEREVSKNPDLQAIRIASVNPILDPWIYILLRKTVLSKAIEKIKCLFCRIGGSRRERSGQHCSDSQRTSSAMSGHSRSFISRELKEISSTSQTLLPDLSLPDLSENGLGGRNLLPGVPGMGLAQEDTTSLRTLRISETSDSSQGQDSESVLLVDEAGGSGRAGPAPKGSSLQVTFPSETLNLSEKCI

In data set [1], `Cc1cc(C(N)=O)ccc1-c1cc(O)cc(CN2CCOC[C@@H]2C(=O)N[C@@H](C)c2ccc(C(=O)O)cc2)c1` [Example 10, 4-((S)-1-((R)-4-((4′-carbamoyl-5-hydroxy-2′-methyl-[1,1′-biphenyl]-3-yl)methyl)morpholine-3-carboxamido)ethyl)benzoic acid] yielded a Papp A→B at 1 h, 10 μM of less than 0.1 ×10⁻⁶ cm/s. Further, at human EP4, the maximal effect (Emax) amounted to 98% and the EC50 was 2e-10 M.
Regarding `Cc1cc(C(N)=O)ccc1-c1cc(O)cc(CN2CCOC[C@H]2C(=O)N[C@H](C)c2ccc(C(=O)O)cc2)c1` [Example 38, 4-((R)-1-((S)-4-((4′-carbamoyl-5-hydroxy-2′-methyl-[1,1′-biphenyl]-3-yl)methyl)morpholine-3-carboxamido)ethyl)benzoic acid], the Papp A→B at 1 h, 10 μM in data set [1] was less than 0.1 ×10⁻⁶ cm/s. Moreover, at human EP4, the Emax is 94% and the EC50 was 2e-08 M.
In the case of `Cc1cc(C(N)=O)ccc1-c1cc(O)cc(CN2CCOC[C@@H]2C(=O)N[C@@H](C)c2ccc(-c3nnn[nH]3)cc2)c1` [Example 36, (R)—N-((S)-1-(4-(1H-tetrazol-5-yl)phenyl)ethyl)-4-((4′-carbamoyl-5-hydroxy-2′-methyl-[1,1′-biphenyl]-3-yl)methyl)morpholine-3-carboxamide], the Papp A→B at 1 h, 10 μM in data set [1] was 0.11 ×10⁻⁶ cm/s. Moreover, on human EP4, the maximal effect (Emax) was determined as 96% and the EC50 was 2.51e-10 M.
On the same counts, the results for `Cc1cc(C(N)=O)ccc1-c1cccc(CN2CCOC[C@@H]2C(=O)NCc2cc(F)c(C(=O)O)c(F)c2)c1` [Example 8, 4-[[[(3R)-4-[[3-(4-carbamoyl-2-methyl-phenyl)phenyl]methyl]morpholine-3-carbonyl]amino]methyl]-2,6-difluoro-benzoic acid] are less than 0.1 ×10⁻⁶ cm/s, 96% and 1.58e-07 M.
In data set [1], `Cc1cc(C(N)=O)ccc1-c1cccc(CN2CCOC[C@@H]2C(=O)N[C@@H](C)c2ccc(C(=O)O)c(O)c2)c1` [Example 19, 4-((S)-1-((R)-4-((4′-carbamoyl-2′-methyl-[1,1′-biphenyl]-3-yl)methyl)morpholine-3-carboxamido)ethyl)-2-hydroxybenzoic acid] had a Papp A→B at 1 h, 10 μM of less than 0.1 ×10⁻⁶ cm/s. Besides, on human EP4, the Emax turned out to be 99% and the EC50 is 1e-08 M.
In data set [1], `Cc1cc(C(N)=O)ccc1-c1ccnc(CN2CCOC[C@@H]2C(=O)N[C@@H](C)c2ccc(C(=O)O)cc2)c1` [Example 4, 4-[(1S)-1-[[(3R)-4-[[4-(4-carbamoyl-2-methyl-phenyl)-2-pyridyl]methyl]morpholine-3-carbonyl]amino]ethyl]benzoic acid] yielded an apparent permeability from apical to basolateral (Papp A→B) at 1 h, 10 μM of 0.5 ×10⁻⁶ cm/s. On human EP4, the Emax was determined as 95% and the EC50 is 6.31e-08 M.
Consider `Cc1cc(S(N)(=O)=O)ccc1-c1cncc(CN2CCOC[C@@H]2C(=O)N[C@@H](C)c2ccc(C(=O)O)cc2)c1` [Example 12, 4-[(1S)-1-[[(3R)-4-[[5-(2-methyl-4-sulfamoyl-phenyl)-3-pyridyl]methyl]morpholine-3-carbonyl]amino]ethyl]benzoic acid], for which the Papp A→B at 1 h, 10 μM in data set [1] was found to be 0.12 ×10⁻⁶ cm/s. For the same compound, at human EP4, the Emax came to 99% and the EC50 is 1.58e-08 M.
With `Cc1cc(S(N)(=O)=O)ccc1-c1ccnc(CN2CCOC[C@@H]2C(=O)N[C@@H](C)c2ccc(C(=O)O)cc2)c1` [Example 17, 4-[(1S)-1-[[(3R)-4-[[4-(2-methyl-4-sulfamoyl-phenyl)-2-pyridyl]methyl]morpholine-3-carbonyl]amino]ethyl]benzoic acid], the apparent permeability from apical to basolateral (Papp A→B) at 1 h, 10 μM in data set [1] was 0.12 ×10⁻⁶ cm/s. This compound also yielded an Emax at human EP4 of 98%.
In data set [1], `Cc1cc(OS(N)(=O)=O)ccc1-c1cc(O)cc(CN2CCOC[C@@H]2C(=O)N[C@@H](C)c2ccc(C(=O)O)cc2)c1` [Example 15, 4-[(1S)-1-[[(3R)-4-[[3-hydroxy-5-(2-methyl-4-sulfamoyloxy-phenyl)phenyl]methyl]morpholine-3-carbonyl]amino]ethyl]benzoic acid] showed a Papp A→B at 1 h, 10 μM of less than 0.1 ×10⁻⁶ cm/s. For the same compound, at human EP4, the Emax is 98% and the EC50 was 3.98e-10 M.
`Cc1cc(C(N)=O)ccc1-c1cncc(CN2CCOC[C@@H]2C(=O)N[C@@H](C)c2ccc(C(=O)O)cc2)c1` [Example 1, 4-((S)-1-((R)-4-((5-(4-carbamoyl-2-methylphenyl)pyridin-3-yl)methyl)morpholine-3-carboxamido)ethyl)benzoic acid]: the Papp A→B at 1 h, 10 μM in data set [1] turned out to be 0.24 ×10⁻⁶ cm/s. Further, on human EP4, the Emax stood at 96% and the EC50 was 1e-08 M.
For `Cc1cc(S(N)(=O)=O)ccc1-c1cncc(CN2CCOC[C@@H]2C(=O)N[C@@H](C)c2ccc(C(=O)O)c(O)c2)c1` [Example 21, 2-hydroxy-4-((S)-1-((R)-4-((5-(2-methyl-4-sulfamoylphenyl)pyridin-3-yl)methyl)morpholine-3-carboxamido)ethyl)benzoic acid], in that order: less than 0.1 ×10⁻⁶ cm/s, 99% and 1.58e-08 M.
In data set [1], `Cc1cc(S(N)(=O)=O)ccc1-c1cc(O)cc(CN2CCOC[C@@H]2C(=O)N[C@@H](C)c2ccc(C(=O)O)cc2)c1` [Example 11, 4-[(1S)-1-[[(3R)-4-[[3-hydroxy-5-(2-methyl-4-sulfamoyl-phenyl)phenyl]methyl]morpholine-3-carbonyl]amino]ethyl]benzoic acid] showed a Papp A→B at 1 h, 10 μM of less than 0.1 ×10⁻⁶ cm/s. On human EP4, the Emax came out at 98% and the EC50 was 3.98e-10 M.
For `C[C@H](NC(=O)[C@H]1COCCN1Cc1ccc(O)c(-c2ccc(C(N)=O)cc2)c1)c1ccc(C(=O)O)cc1` [Example 23, 4-[(1S)-1-[[(3R)-4-[[3-(4-carbamoylphenyl)-4-hydroxy-phenyl]methyl]morpholine-3-carbonyl]amino]ethyl]benzoic acid], in that order: 0.48 ×10⁻⁶ cm/s, 93% and 1e-08 M.
For `Cc1cc(C(N)=O)ccc1-c1cccc(CN2CCOC[C@@H]2C(=O)NC2(c3ccc(C(=O)O)cc3)CC2)c1` [Example 31, (R)-4-(1-(4-((4′-carbamoyl-2′-methyl-[1,1′-biphenyl]-3-yl)methyl)morpholine-3-carboxamido)cyclopropyl)benzoic acid], in that order: 0.66 ×10⁻⁶ cm/s, 98% and 1.26e-10 M.
`Cc1cc(C(N)=O)ccc1-c1cc(CN2CCOC[C@@H]2C(=O)N[C@@H](C)c2ccc(C(=O)O)cc2)ccn1` [Example 3, 4-[(1S)-1-[[(3R)-4-[[2-(4-carbamoyl-2-methyl-phenyl)-4-pyridyl]methyl]morpholine-3-carbonyl]amino]ethyl]benzoic acid] came in with a Papp A→B at 1 h, 10 μM in data set [1] of 0.57 ×10⁻⁶ cm/s. Besides, on human EP4, the Emax is 96% and the EC50 is 6.31e-08 M.
